Laboratory results reported in patent publication US8822500B2, “Tyrosine kinase inhibitors” (Chembridge Corporation, priority 2008, dated 2014).
Where “and” joins values, the source holds several entries; their conditions need not be identical. Equal entries are not always repeated. Where two headings read alike, the source gives them in different places.

Columns and labels:
U937 lymphoma cells = assay: Cellular assay, 3 day cell viability (WST-1); assay type: cell-based; details: Homo sapiens, U-937, 72 h; 3 days, WST-1; read-out: U937 IC50
TrkB = TrkB (Homo sapiens (Human), UniProt Q16620); assay: In vitro kinase activity assay (LANCE TR-FRET); assay type: biochemical; details: read-out: TrkB (nM) IC50
in vitro [1] = details: human, microsomes
[2] = target: hERG (human ether-a-go-go related gene) potassium channel (Homo sapiens (Human), UniProt Q12809); assay: hERG potassium channel current, automated patch clamp (PatchXpress 7000A);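 also: Four-point series of 0.3, 3, 10 and 30 µM, two cells recorded per concentration, 5 min exposure at each level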
hERG potassium channel = hERG potassium channel (Homo sapiens (Human), UniProt Q12809); assay: as above; details: human; for inhibition at 5 min, 30 µM: 30 μM (low solubility at this concentration)
[3] = Metabolic stability, Phase I microsome reactions; assay type: in vitro ADME, mouse; details: mouse, pH 7.4, Phase I only, 1.0 mg/ml microsomes, read-out: Mouse LM-P1 Half-life
[4] = test system: NPM-ALK R1275Q BaF3 cells; assay: BaF3 stables cell viability (WST-1); details: Mus musculus, BaF3, read-out: BaF3 Stables IC50 nM R1275Q
Mouse pharmacokinetics = details: for AUC: plasma, 10 mg/kg
ROS = ROS (Homo sapiens (Human), UniProt P08922); assay: In vitro kinase activity assay (LANCE TR-FRET); assay type: biochemical; details: read-out: ROS (nM) IC50
[5] = Rat pharmacokinetics / bioavailability; assay type: in vivo
[6] = Metabolic stability, Phase I microsome reactions; details: rat, microsomes
FLT3-ITD BaF3 cells = assay: BaF3 stables cell viability (WST-1); details: Mus musculus, BaF3, read-out: BaF3 Stables IC50 nM FLT3-ITD
[7] = Guinea pig pharmacokinetics; details: for AUC(0-t): plasma, 10 mg/kg
in vitro [8] = details: rat, microsomes
NB-1 neuroblastoma cells = assay: Cellular assay, 3 day cell viability (WST-1); assay type: cell-based; details: 72 h, 3 days, WST-1, read-out: NB-1 IC50
[9] = microsomes, 0.5 μM, pH 7.4
K299 lymphoma cells = assay: Cellular assay, 3 day cell viability (WST-1); assay type: cell-based; details: 3 days, read-out: K299 IC50
[10] = Caco-2 cell permeation study; assay type: in vitro ADME; details: human, Caco-2, 10 μM;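 also: Caco-2 monolayers grown for 21–28 days with integrity confirmed by TEER, apical buffer HBSS with MES, basolateral buffer HBSS with HEPES, compound levels quantified by LC/MS/MS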
RET = RET (Homo sapiens (Human), UniProt P07949); assay: In vitro kinase activity assay (LANCE TR-FRET); assay type: biochemical; details: read-out: RET (nM) IC50
SUDHL-1 lymphoma cells = assay: Cellular assay, 3 day cell viability (WST-1); assay type: cell-based; details: 3 days, WST-1; read-out: SUDHL-1 IC50
ALK R1275Q = ALK R1275Q (Homo sapiens (Human), UniProt Q9UM73, R1275Q); assay: Cell free kinase assay (Carna Biosciences kinases); assay type: biochemical
NPM-ALK BaF3 cells = assay: BaF3 stables cell viability (WST-1); details: Mus musculus, BaF3, read-out: BaF3 Stables IC50 nM NPMALK
ALK (WT) = ALK (WT) (Homo sapiens (Human), UniProt Q9UM73); assay: Cell free kinase assay (Carna Biosciences kinases); assay type: biochemical
[11] = test system: EML4-ALK R1275Q BaF3 cells; assay: BaF3 stables cell viability (WST-1); details: Mus musculus, BaF3, read-out: BaF3 Stables IC50 nM R1275Q, EML4-ALK construct
[12] = test system: NPM-ALK C1156Y BaF3 cells; assay: BaF3 stables cell viability (WST-1); details: Mus musculus, BaF3, read-out: BaF3 Stables IC50 nM C1156Y
EML4-ALK BaF3 cells = assay: BaF3 stables cell viability (WST-1); details: Mus musculus, BaF3, read-out: BaF3 Stables IC50 nM EML4-ALK
ALK = ALK (Homo sapiens (Human), UniProt Q9UM73); assay: In vitro kinase activity assay (LANCE TR-FRET); assay type: biochemical; details: read-out: GTx-ALK IC50;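 also: kinase reactions with ATP and a poly-GT peptide substrate, phosphorylated product read by time-resolved FRET, 11-point curve from 10^−11 to 10^−5 M, DMSO as negative control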
[13] = test system: EML4-ALK C1156Y BaF3 cells; assay: BaF3 stables cell viability (WST-1); details: Mus musculus, BaF3, read-out: BaF3 Stables IC50 nM C1156Y
[14] = Individual Data Points (% Inhibition)
[15] = male, Sprague-Dawley, plasma, iv, 10 mg/kg I.V.
[16] = male, Sprague-Dawley, plasma, po, 10 mg/kg P.O.
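For Human LM-P1 Half-life (min) in this document: liver microsomes at 1.0 mg/ml with NADPH regenerating system, 37 °C, sampled at 0, 5, 10, 30 and 60 min, parent compound quantified by LC-MS/MS.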

Chain of hERG potassium channel (Q12809 whole entry): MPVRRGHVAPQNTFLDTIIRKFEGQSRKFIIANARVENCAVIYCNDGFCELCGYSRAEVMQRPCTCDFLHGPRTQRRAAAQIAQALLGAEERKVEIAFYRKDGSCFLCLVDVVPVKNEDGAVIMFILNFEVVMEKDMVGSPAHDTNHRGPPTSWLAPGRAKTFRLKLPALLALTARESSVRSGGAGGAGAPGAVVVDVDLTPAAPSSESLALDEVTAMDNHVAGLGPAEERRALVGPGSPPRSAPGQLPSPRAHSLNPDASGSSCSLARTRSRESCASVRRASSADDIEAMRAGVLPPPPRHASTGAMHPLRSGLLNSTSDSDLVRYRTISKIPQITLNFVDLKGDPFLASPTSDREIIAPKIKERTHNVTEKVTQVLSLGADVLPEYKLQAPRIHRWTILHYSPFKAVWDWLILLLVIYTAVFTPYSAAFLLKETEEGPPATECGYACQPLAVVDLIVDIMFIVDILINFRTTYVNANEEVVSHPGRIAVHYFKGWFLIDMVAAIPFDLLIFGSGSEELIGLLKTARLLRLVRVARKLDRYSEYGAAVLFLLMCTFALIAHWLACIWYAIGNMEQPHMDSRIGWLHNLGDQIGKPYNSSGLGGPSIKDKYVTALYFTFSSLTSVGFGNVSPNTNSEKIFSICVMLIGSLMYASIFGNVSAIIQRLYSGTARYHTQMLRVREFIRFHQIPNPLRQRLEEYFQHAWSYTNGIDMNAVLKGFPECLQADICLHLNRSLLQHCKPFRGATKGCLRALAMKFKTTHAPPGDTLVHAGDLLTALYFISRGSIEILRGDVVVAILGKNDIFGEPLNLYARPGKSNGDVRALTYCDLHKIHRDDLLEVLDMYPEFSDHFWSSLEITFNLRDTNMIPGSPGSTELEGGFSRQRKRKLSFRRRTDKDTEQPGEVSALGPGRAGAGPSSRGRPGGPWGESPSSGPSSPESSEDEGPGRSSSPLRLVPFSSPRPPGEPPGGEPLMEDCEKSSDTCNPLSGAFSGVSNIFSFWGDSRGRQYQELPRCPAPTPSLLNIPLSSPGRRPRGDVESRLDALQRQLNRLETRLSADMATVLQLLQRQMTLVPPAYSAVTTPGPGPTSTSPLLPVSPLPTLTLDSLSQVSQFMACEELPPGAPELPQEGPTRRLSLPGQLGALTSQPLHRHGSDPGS
Chain of hERG (human ether-a-go-go related gene) potassium channel (Q12809 whole entry): as above
Chain of ALK R1275Q (Q9UM73 1060-1620 R1275Q): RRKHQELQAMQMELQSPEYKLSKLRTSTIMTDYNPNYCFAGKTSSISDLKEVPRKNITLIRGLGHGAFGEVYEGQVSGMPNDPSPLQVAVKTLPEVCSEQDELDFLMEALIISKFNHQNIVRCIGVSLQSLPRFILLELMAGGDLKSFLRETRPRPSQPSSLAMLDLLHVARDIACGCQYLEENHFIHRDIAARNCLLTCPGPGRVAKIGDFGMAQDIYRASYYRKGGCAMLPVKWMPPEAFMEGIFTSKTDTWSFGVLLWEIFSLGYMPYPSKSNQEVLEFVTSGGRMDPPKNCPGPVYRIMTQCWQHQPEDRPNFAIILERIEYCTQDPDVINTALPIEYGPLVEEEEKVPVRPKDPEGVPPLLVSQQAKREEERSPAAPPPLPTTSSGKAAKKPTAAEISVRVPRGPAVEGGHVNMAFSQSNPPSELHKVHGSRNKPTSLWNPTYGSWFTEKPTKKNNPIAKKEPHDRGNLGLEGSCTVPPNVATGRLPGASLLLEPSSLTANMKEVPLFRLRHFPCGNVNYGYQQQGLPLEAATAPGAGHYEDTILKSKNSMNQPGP
Chain of ALK (Q9UM73 19-1620): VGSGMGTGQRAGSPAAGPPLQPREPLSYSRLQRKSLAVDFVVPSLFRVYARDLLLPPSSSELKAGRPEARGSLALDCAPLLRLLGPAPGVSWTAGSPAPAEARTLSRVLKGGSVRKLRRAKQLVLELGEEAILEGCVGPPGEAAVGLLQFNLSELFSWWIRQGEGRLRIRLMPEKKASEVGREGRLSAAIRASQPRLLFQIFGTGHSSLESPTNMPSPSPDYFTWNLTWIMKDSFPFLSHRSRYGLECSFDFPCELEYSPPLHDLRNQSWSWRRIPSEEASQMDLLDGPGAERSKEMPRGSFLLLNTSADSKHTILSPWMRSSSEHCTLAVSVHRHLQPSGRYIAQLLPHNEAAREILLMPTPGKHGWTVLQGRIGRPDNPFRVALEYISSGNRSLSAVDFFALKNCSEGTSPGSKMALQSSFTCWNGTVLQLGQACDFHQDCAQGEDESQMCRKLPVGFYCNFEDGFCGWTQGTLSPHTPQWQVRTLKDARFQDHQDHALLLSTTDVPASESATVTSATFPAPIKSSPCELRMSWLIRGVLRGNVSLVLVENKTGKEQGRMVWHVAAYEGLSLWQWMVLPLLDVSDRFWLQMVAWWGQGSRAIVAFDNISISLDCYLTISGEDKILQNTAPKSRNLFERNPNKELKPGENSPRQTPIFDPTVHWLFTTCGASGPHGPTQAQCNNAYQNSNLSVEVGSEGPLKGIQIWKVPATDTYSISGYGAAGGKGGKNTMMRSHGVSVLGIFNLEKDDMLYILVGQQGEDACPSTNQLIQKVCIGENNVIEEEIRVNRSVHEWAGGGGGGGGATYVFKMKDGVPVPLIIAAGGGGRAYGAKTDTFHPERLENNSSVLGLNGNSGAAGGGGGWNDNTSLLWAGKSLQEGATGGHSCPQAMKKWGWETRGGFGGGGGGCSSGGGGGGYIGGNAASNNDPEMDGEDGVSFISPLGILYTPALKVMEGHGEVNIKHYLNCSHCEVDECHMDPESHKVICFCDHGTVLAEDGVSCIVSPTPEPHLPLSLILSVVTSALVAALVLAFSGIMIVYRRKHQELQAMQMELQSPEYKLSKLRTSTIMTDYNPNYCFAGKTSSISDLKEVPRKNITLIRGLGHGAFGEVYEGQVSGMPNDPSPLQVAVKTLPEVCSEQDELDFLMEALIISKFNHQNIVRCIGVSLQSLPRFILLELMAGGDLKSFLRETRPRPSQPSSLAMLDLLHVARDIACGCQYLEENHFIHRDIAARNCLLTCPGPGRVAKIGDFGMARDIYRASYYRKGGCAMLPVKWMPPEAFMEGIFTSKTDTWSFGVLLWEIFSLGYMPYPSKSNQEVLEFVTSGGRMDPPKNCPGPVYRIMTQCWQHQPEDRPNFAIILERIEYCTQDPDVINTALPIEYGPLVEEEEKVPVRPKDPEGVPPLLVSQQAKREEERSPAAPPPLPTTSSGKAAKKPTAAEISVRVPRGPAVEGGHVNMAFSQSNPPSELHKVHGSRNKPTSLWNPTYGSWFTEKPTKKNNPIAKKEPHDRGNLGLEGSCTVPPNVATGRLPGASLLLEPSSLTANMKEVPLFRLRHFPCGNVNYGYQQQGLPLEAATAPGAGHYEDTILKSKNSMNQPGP
Chain of ALK (WT) (Q9UM73 1060-1620): as the sequence (Q9UM73 1060-1620 R1275Q) above, with Q216R counted along it

C[C@@H](Cc1c(F)c(F)cc(F)c1F)Nc1cc[nH]c(=O)c1-c1nc2cc3c(cc2[nH]1)CN(CCN(C)C)C3=O [Compound 1, (S)-6-(2-(Dimethylamino)ethyl)-2-(2-oxo-4-((1-(2,3,5,6-tetrafluorophenyl)propan-2-yl)amino)-1,2-dihydropyridin-3-yl)-6,7-dihydroimidazo[4,5-f]isoindol-5(3H)-one]
IC50 (U937 lymphoma cells): 1.6 µM | IC50 (TrkB): 2.06 nM | microsomal CLint at 0.5 μM (in vitro [1]; pH 7.4, Human LM-P1 CL (ul/min/mg)): 5.87 µL/min/mg | half-life at 0.5 μM (in vitro [1]; pH 7.4, Human LM-P1 Half-life (min)): 1.97 h | IC50 [2]: 6.25 µM | Individual Data Points (% Inhibition) ([2]; 0.3 μM): 5.0% | Individual Data Points (% Inhibition) ([2]; 3 μM): 36.3% | Individual Data Points (% Inhibition) ([2]; 10 μM): 49.4% | Individual Data Points (% Inhibition) ([2]; 30 μM (low solubility at this concentration)): 62.7% | inhibition at 5 min, 0.3 µM (hERG potassium channel; [14]): 5.9% | inhibition at 5 min, 3 µM (hERG potassium channel; [14]): 43.6% | inhibition at 5 min, 10 µM (hERG potassium channel; [14]): 59.4% | inhibition at 5 min, 30 µM (hERG potassium channel; [14]): 71.1% | inhibition at 5 min, 0.3 µM (hERG potassium channel; Mean % hERG Inhibition): 5.5% | inhibition at 5 min, 3 µM (hERG potassium channel; Mean % hERG Inhibition): 39.9% | inhibition at 5 min, 10 µM (hERG potassium channel; Mean % hERG Inhibition): 54.4% | inhibition at 5 min, 30 µM (hERG potassium channel; Mean % hERG Inhibition): 66.9% | half-life at 0.5 μM [3]: 8.4 min | IC50 [4]: 279 ± 21 nM | F (Mouse pharmacokinetics; 10 mg/kg SC): 30% | AUC (Mouse pharmacokinetics; iv): 1770 ng·h/mL | AUC (Mouse pharmacokinetics; sc): 522 ng·h/mL | F (Dog pharmacokinetics; 5 mg/kg PO): 12% | AUC(0-t) (Dog pharmacokinetics; plasma, iv, 1 mg/kg): 483 ng·h/mL | AUC (Dog pharmacokinetics; plasma, po, 5 mg/kg): 287 ng·h/mL | IC50 (ROS): 0.205 nM | IV_AUC0-1440 Rat 10 mpk ([5]; 10 mg/kg I.V.): 329 µg·min/mL | PO_AUC0-1440 Rat 10 mpk ([5]; 10 mg/kg P.O.): 0.943 µg·min/mL | MRT [5, 15]: 22.7 h | clearance [5, 15]: 25.5 mL/min/kg | half-life [5, 15]: 22.1 h | Vd ([5]; male, Sprague-Dawley, plasma, iv, 10 mg/kg I.V., read-out: Vss): 23.9 L/kg | Cmax [5, 16]: 2.21 ng/mL | Tmax [5, 16]: 1.88 h | bioavailability ([5]; male, Sprague-Dawley, plasma, po, 10 mg/kg P.O., read-out: Rat F %): 0.287% | microsomal CLint at 0.5 μM ([6]; pH 7.4): 100 µL/min/mg | half-life at 0.5 μM ([6]; pH 7.4, Rat LM-P1 Half-life (min), Phase I only, 0.5 μM, 1.0 mg/ml microsomes): 6.99 min | IC50 (FLT3-ITD BaF3 cells): > 3 nM | F ([7]; 10 mg/kg PO): 1% | AUC(0-t) ([7]; iv): 3570 ng·h/mL | AUC(0-t) ([7]; po): 37.2 ng·h/mL | half-life at 0.5 μM (in vitro [8]; pH 7.4): 8.43 min | microsomal CLint at 0.5 μM (in vitro [8]; pH 7.4, Rat LM-P1 CL (ul/min/mg)): 82.2 µL/min/mg | IC50 (NB-1 neuroblastoma cells): 0.177 µM | Human LM-P1 Half-life [9]: >2 h | IC50 (K299 lymphoma cells; 72 h): 0.076 µM | IC50 (K299 lymphoma cells): 0.073 µM | Papp A→B at 2 h, 10 μM ([10]; apical pH 6.5, 2 h): < 0.2 ×10⁻⁶ cm/s | Papp B→A at 2 h, 10 μM ([10]; basolateral pH 7.4, 2 h): 19.9 ×10⁻⁶ cm/s | IC50 (RET): 3.53 nM | IC50 (SUDHL-1 lymphoma cells): 0.022 µM

Cc1ccc(F)cc1C[C@H](C)Nc1cc[nH]c(=O)c1-c1nc2cc3c(cc2[nH]1)CN(CCN(C)C)C3=O (stereo in doubt) [Compound 45, 2-(4-(1-(5-Fluoro-2-methylphenyl)propan-2-ylamino)-2-oxo-1,2-dihydropyridin-3-yl)-6-(2-(dimethylamino)ethyl)-6,7-dihydroimidazo[4,5-f]isoindole-5(1H)-one]
IC50 (ALK R1275Q; read-out: Cell Free IC50 (nM) R1275O): 16.8 nM | cell free R1275Q resistance (ALK R1275Q; vs ALK (WT)): 4 fold | IC50 [4]: 81 ± 4.2 nM | IC50 (NPM-ALK BaF3 cells): 46 ± 2 nM | IC50 (ALK (WT)): 3.3 nM | IC50 [11]: ~90 nM | IC50 (FLT3-ITD BaF3 cells): > 1 nM | IC50 [12]: 72 ± 1.2 nM | IC50 (EML4-ALK BaF3 cells): 66 ± 2.7 nM | IC50 (ALK): 0.007 µM and 0.014 µM | IC50 [13]: 90 ± 3.2 nM
